Where “and” joins values, the source holds several entries; their conditions need not be identical. Equal entries are not always repeated. Structures can show the parent of a compound that is named as a salt.

Assay [1] relates to SOX2. Put plainly: SOX2 levels by Western blot in A375-P cells. In kind it is cell-based. To be noted: 1 μM PLX4720, 0.5 μM AZD6244 or both, indicated times, versus 0.01% DMSO. As for the experimental part: (A) A375-P cells were treated with PLX4720 (BRAFi) or DMSO for 6 h, RNA was isolated and RNA-Seq was performed. […] Differentially expressed genes (DEGs) selected for pathway analysis are represented by red and blue dots depending on the direction of the transcriptional change (red genes are induced upon PLX4720, blue genes are repressed upon PLX4720). (B) Bar graphs showing the five top pathways with significant enrichment of the analyzed DEGs. Longer bars indicate stronger significance. (C) Top deregulated genes upon treatment with PLX4720 (left column). Top genes induced and repressed by PLX4720 are shown in separate lists. (D) Indicated cell lines were treated with 1 μM PLX4720 or 0.01% DMSO (0 h) for the indicated times and the expressional changes of selected genes associated with stemness/EMT were confirmed by qPCR. […] As key player in the sternness signature, SOX2 levels were assessed. […] (F) A375-P cells were treated with 1 μM PLX4720, 0.5 μM AZD6244 (MEK1/2 inhibitor) or 0.01% DMSO for the indicated times and SOX2 levels were assessed by Western blot analysis. […] (G) A375-P cells were treated with 1 μM PLX4720 (BRAFi), 0.5 μM AZD6244 (MEKi), a combination of both drugs or 0.01% DMSO for the indicated times and SOX2 levels were assessed by Western blot analysis. […] For all Western blots, individual time points were assessed in at least two independent experiments. […]
In general terms: In western blotting, separated proteins are transferred to a membrane and probed.

Assay [2] relates to genes associated with stemness/EMT. The assay is described as follows: RNA-Seq / qPCR of genes associated with stemness/EMT in melanoma cells. To be noted: A375-P cells, 1 μM PLX4720, 0.5 μM AZD6244 or both, 24 h, versus 0.01% DMSO. The assay is classed as cell-based.
Experimental: Data shown represent mean of independent biological triplicates ±SEM. (E) Western blot analysis of the same experiment as shown in (D). […] P-ERK1/2 levels served as positive treatment controls. Total ERK1/2 levels served as loading control. (F) A375-P cells were treated with 1 μM PLX4720, 0.5 μM AZD6244 (MEK1/2 inhibitor) or 0.01% DMSO for the indicated times and SOX2 levels were assessed by Western blot analysis. […] (G) A375-P cells were treated with 1 μM PLX4720 (BRAFi), 0.5 μM AZD6244 (MEKi), a combination of both drugs or 0.01% DMSO for the indicated times and SOX2 levels were assessed by Western blot analysis. […] For all Western blots, individual time points were assessed in at least two independent experiments. Representative data is shown.
Another assay relates to S6K and BAD. Put plainly: Survival signaling by Western blot in A375-P/pTRIPZ cells. In kind it is cell-based. To be noted: A375-P/pTRIPZ-control or -SOX2 cells, PLX4720 48 h. As for the experimental part: (A) A375-P cells were transfected with 100 nM siRNA targeting SOX2 or a negative control siRNA. Cells were then treated with PLX4720 (BRAFi) or DMSO for 48 h. 2 h before harvesting, cells were pulsed with 3 uM EdU to label cycling cells. EdU-positive cells were detected using flow cytometry. Note that SOX2 knockdown has no effect on cell proliferation when BRAF is active (DMSO) but reduces the pool of drug-tolerant, cycling cells in the BRAFi condition. Representative data is shown. (B) Quantification of experiment (A). For each condition, percentage of cycling cells upon siRNA knockdown of SOX2 was normalized to the negative control siRNA. Data shown represent mean of independent biological triplicates ±SEM. (C) A375-P cells stably transduced with pTRIPZ-SOX2 vector were treated with the indicated concentrations of doxycycline for three days or with 1 μM PLX4720 (PLX) for 24 h. SOX2 overexpression was confirmed by Western blot analysis. Lamin A served as loading control. Individual concentrations were assessed in at least two independent experiments. Representative results are shown. […] EdU-positive cells were detected using flow cytometry. […] Cell viability was assessed by PrestoBlue assay and IC50 values were calculated. […] Survival signaling was assessed by Western blot. […]

In assay [3] the test system is SOX2. The assay is described as follows: Screen of a library of FDA-approved drugs for SOX2 antibody staining in A375 cells treated with PLX4720 and AZD6244. The settings on record: for cor. loess / raw / norm: A375 cells, 5 uM test drug with 1 uM PLX4720 and 0.5 uM AZD6244, 24 h; for cor. loess: normalized and geometry-corrected (loess) signal; for raw: raw signal (ratio of FL2 SOX2 antibody and FL3 nuclear staining), screen run in duplicate; for norm: signal after plate normalization; for z: Z-test against negative controls (DMSO), single dose 5 uM.

As for `CCCS(=O)(=O)Nc1ccc(F)c(C(=O)c2c[nH]c3ncc(Cl)cc23)c1F` [PLX4720], in the assay with SOX2 [1], the “SOX2 levels (Western blot)” value is “induce similar SOX2 levels”. Besides, the “expressional changes of selected genes associated with stemness/EMT (qPCR)” value in assay [2] is recorded as “comparable effects on transcript levels”. Moreover, the “Survival signaling via S6K and BAD (Western blot)” value with S6K and BAD was “repressed”.

For `Cn1cnc2c(F)c(Nc3ccc(Br)cc3Cl)c(C(=O)NOCCO)cc21` [AZD6244], in the assay on SOX2 [1], the “SOX2 levels (Western blot)” value was “induce similar SOX2 levels”. The “expressional changes of selected genes associated with stemness/EMT (qPCR)” value in assay [2] was “comparable effects on transcript levels”.

Turning to `CC(=O)OCC(=O)[C@@]1(O)CC[C@H]2[C@@H]3CCC4=CC(=O)C=C[C@]4(C)[C@@]3(Cl)[C@@H](Cl)C[C@@]21C` [DICHLORISONE ACETATE], in the assay on SOX2 [3], the cor. loess is 0.4911, the raw worked out at 0.9771, the norm stood at 0.4765 and the z came to 5.445.

As for `C[C@@H]1C[C@H]2[C@@H]3C[C@H](F)C4=CC(=O)C=C[C@]4(C)[C@@]3(F)[C@@H](O)C[C@]2(C)[C@@]1(O)C(=O)COC(=O)C(C)(C)C` [FLUMETHAZONE PIVALATE], in the assay with SOX2 [3], the cor. loess is given as 0.4809, the raw turned out to be 0.9766, the norm is reported as 0.5179 and the z turned out to be 3.963.

For the molecule `CCC(=O)O[C@]1(C(=O)CCl)[C@@H](C)C[C@H]2[C@@H]3CCC4=CC(=O)C=C[C@]4(C)[C@@]3(F)[C@@H](O)C[C@@]21C` [CLOBETASOL PROPIONATE], in the assay on SOX2 [3], the cor. loess was found to be 0.4021, the raw turned out to be 0.9794, the norm was found to be 0.4554 and the z is given as 5.471.

Regarding `CC(=O)OCC(=O)[C@@]1(O)[C@H](OC(C)=O)C[C@H]2[C@@H]3CCC4=CC(=O)C=C[C@]4(C)[C@@]3(F)[C@@H](O)C[C@@]21C` [TRIAMCINOLONE DIACETATE], in the assay with SOX2 [3], the cor. loess is given as 0.3964, the raw amounted to 0.9794, the norm is 0.4506 and the z is 4.238.

For the molecule `CC(=O)OCC(=O)[C@@]12OC(C)(C)O[C@@H]1C[C@H]1[C@@H]3C[C@H](F)C4=CC(=O)C=C[C@]4(C)[C@@]3(F)[C@@H](O)C[C@@]12C` [FLUOCINONIDE], in the assay with SOX2 [3], the cor. loess is on record as 0.4293, the raw was 0.9797, the norm amounted to 0.4123 and the z amounted to 3.538.

As for `CCOC(=O)COc1ccc2c(=O)cc(-c3ccccc3)oc2c1` [EFLOXATE], in the assay with SOX2 [3], the cor. loess is given as 1.468, the raw is 0.955, the norm is recorded as 1.397 and the z worked out at 5.713.

For `CCCCN1CCCCC1C(=O)Nc1c(C)cccc1C` (stereo not drawn) [BUPIVACAINE HYDROCHLORIDE], in the assay with SOX2 [3], the cor. loess worked out at 0.2934, the raw worked out at 0.9835, the norm stood at 0.3196 and the z is 3.991.

As to `CCCCCCc1ccc(O)cc1O.Nc1c2ccccc2nc2ccccc12` [ACRISORCIN], in the assay with SOX2 [3], the raw is 0.9675 and 0.9751; the norm is 0.7754 and 0.5959; the z was 4.872 and 7.943.

For the molecule “ABAMECTIN [ABAMECTIN (avermectin B1a shown)]”, in the assay with SOX2 [3], the cor. loess came to 0.4606, the raw worked out at 0.9779, the norm is 0.5009 and the z is given as 4.925.

In the case of `CC1(C)O[C@@H]2C[C@H]3[C@@H]4C[C@H](F)C5=CC(=O)C=C[C@]5(C)[C@@]4(F)[C@@H](O)C[C@]3(C)[C@]2(C(=O)CO)O1` [FLUOCINOLONE ACETONIDE], in the assay with SOX2 [3], the cor. loess stood at 0.4202, the raw worked out at 0.9791, the norm amounted to 0.434 and the z is listed as 3.463.

As for `CCCCc1oc2ccc(NS(C)(=O)=O)cc2c1C(=O)c1ccc(OCCCN(CCCC)CCCC)cc1` [DRONEDARONE HYDROCHLORIDE], in the assay on SOX2 [3], the cor. loess is on record as 3.823, the raw is on record as 0.8721, the norm was 4.004 and the z came to 52.01.
